Experimental data as given in patent publication US5972923A, “Methods and compositions to enhance the cytoprotective effects of polycyclic phenolic compounds through the synergistic interaction with anti-oxidants” (priority 1998, dated 1999).
Where two headings read alike, the source gives them in different places.

Experiments:
HT-22 cells [1] = test: Effects of 17β-estradiol and its BSA conjugate on βAP 25-35 induced toxicity on HT-22 cells (trypan blue); conditions: for Live Cell Number ± SEM: 3.25 μM GSH, 48 h
Procedure: Experiments were initiated by plating cells in Nunc^X 24 well plate and cells were allowed to attach for 4 h before treatment.

HT-22 cells [2] = test: Effects of estratrienes with and without glutathione on neurotoxicity of βAP 25-35 in HT-22 cells; conditions: for neuroprotection: concurrent treatment with βAP 25-35; for EC50: Mus musculus; for decrease in cell viability: β-AP (25-35)
Procedure: Experiments were initiated by plating cells in Nunc^X 24 well plate cells were allowed to attach for 4 h before treatment. […] After 48 h cells were suspended and viability determined using the trypan blue dye exclusion method (Tennant 1964). Steroids and βAP were prepared as previously described (Green et al. 1996). ED50 values were analyzed by a two way Analysis of Variance. Differences among effects were determined by a Scheffe's post hoc analysis with a p<0.05 considered significant. […] Data are normalized to the βAP free control group as 100% protection and the βAP alone group as 0% protection.

[3] = system: rat primary cortical neurons; test: Neuroprotection against βAP 25-35 in rat primary cortical neurons (LIVE/DEAD kit); conditions: for EC50: Rattus norvegicus, Primary cortical neuron
Procedure: Primary Rat Cortical Culture: Primary neuronal cultures were prepared according to the method used by Chandler et al. Alcoholism: Clinical and Experimental Research, 17 (1993) 54-60.
Once treatments were added, primary cultures were incubated for an additional 24 h and viability determined using the LIVE/DEAD® viability/cytotoxicity kit (Molecular Probes, Eugene, Oreg.) according to manufacturer's instructions. Live cells are distinguished by the presence of intracellular esterase activity which cleaves the calcein AM dye, producing a bright green fluorescence when excited. Ethidium homodimer enters cells with damaged membranes, and upon binding to nucleic acids, produces a red fluorescence. Both dyes are excited at 485 nm, and cultures plates were viewed with a fluorescent microscope (Nikon Diaphot-300). Three random fields were photographed, and the average number of live cells per field was determined by counting the number of bright green cells.

SK-N-SH cells [4] = test: Dose response of neuroprotection by GSH or 17β-estradiol against βAP 25-35 in SK-N-SH cells (trypan blue); assay type: cell-based, human; conditions: for EC50: Homo sapiens, SK-N-SH
Procedure: Media was changed three times weekly.
Cells were suspended by repeated pipetting.
After 72 hours incubation, live cells were determined with Trypan Blue exclusion.
After 72 hours incubation, the cells were stained with Trypan Blue. […] (FIG. 3).

SK-N-SH cells [5] = test: Live cell number of SK-N-SH cells with βAP 25-35 induced toxicity (trypan blue exclusion), 17β-estradiol and anti-oxidants; conditions: for interaction with estrogen: combination with estrogen
Procedure: The assay utilized the human neuroblastoma cells SK-N-SH.
Materials: Lyophilized βAP 25-35 (1 mg) (Bachem, Torrance, Calif.) was initially dissolved in 200 μl ddH20 and with the addition of 800 μl of PBS, rapid aggregation was observed. […] Lipoic acid (thiotic acid), taurine (2-aminoethanoic acid), and ascorbic acid were initially dissolved in cell culture media and used at the concentrations indicated. Unless otherwise noted, materials were obtained from Sigma Chemical Corp SK-N-SH Neuroblastoma Cell Culture: SK-N-SH neuroblastoma cells were obtained from American Type Tissue Collection (Rockville, Md.). Cell cultures were grown to confluency in RPMI-1640 media (Fisher Scientific, Inc.) supplemented with 10% charcoal/dextran-treated fetal bovine serum (FBS), (Hyclone®), Logan, Utah), 100 U/ml penicillin G and 100 mg/ml streptomycin (Sigma Chemical Corp.) in monolayers in Corning 150 cm^2 flasks (Fisher Scientific, Inc.) at 37° C. under 5% CO2, 95% air. Media was changed three times weekly.
(a) SK-N-SH cells used in the following experiments were in passes 4 to 12. The growth media was initially decanted and the cells were rinsed with 0.02% EDTA for 30 min at 37° C. Cells were then counted on a Neubauer hemacytometer (Fisher Scientific) and resuspended in appropriate media. Studies were initiated by plating 1×10^6 cells per well in 24 well plates, allowing attachment in regular media and then decanting that media and replacing with the appropriate treatment after 4 h.
SK-N-SH cell viability was determined utilizing the trypan blue exclusion method (Black and Berenbaum, 1964; Tennant, 1964). After 72 h of incubation, treatment media was decanted and cells were lifted by incubating with 0.2 ml 0.02% EDTA for 30 min at 37° C. Cells were suspended by repeated pipetting. One-hundred μl aliquots from each cell suspension were incubated with 100 μl aliquots of 0.4 % trypan blue stain for 5 min at room temperature. All suspensions were counted on a Neubauer hemacytometer within 10 min of addition of trypan blue stain. Two independent counts of live and dead cells were made for each aliquot.
Statistics: The significant treatment effects on cell viability were determined using ANOVA followed by Scheffe's post hoc test, with significance determined at p<0.05. For dose-response evaluations, EC50 values were calculated by randomly assigning cell counts at the indicated doses to generate 3-5 lines per treatment and determining the average value for those lines. Mann-Whitney Rank Sum non-parametric analysis were used on EC50 values because the variances for the standard deviation were not equivalent.

[6] = βAP 25-35 (20 μM) + TRT (anti-oxidant), 72 h
[7] = βAP 25-35 (20 μM) + βE2 + TRT (anti-oxidant), 72 h
[8] = HT-22, read-out: ED50, absence of GSH
[9] = HT-22, read-out: ED50, presence of GSH

“17β-estradiol-6-(carboxymethyl) oxime: BSA [β17-E2:BSA]” was tested, and the “ability to protect HT22 cells from βAP (25-35) toxicity” value (HT-22 cells [1]; BSA conjugate containing 20 μM 17β-estradiol, presence of GSH) was “abolished the ability of the steroid to protect HT22 cells” and the “Live Cell Number ± SEM” value (HT-22 cells [1]; βAP (20 μM) + 20 μM β17-E2:BSA) was 216 ± 17 ×10^3 cells.
With `C[C@]12CC[C@@H]3c4ccc(O)cc4CC[C@H]3[C@@H]1CC[C@@H]2O` [17β-estradiol] the neuroprotection (HT-22 cells [2]) was “dose-dependent neuroprotection”, the EC50 ([3]; absence of GSH) was 68.1 ± 79 nM and the EC50 ([3]; presence of GSH) was 4.3 ± 5.9 nM. For the same compound, the neuroprotection (SK-N-SH cells [4]; 200 nM 17β-estradiol, absence of glutathione) was “Neuroprotection was observed”, the EC50 (SK-N-SH cells [4]; 72 h, read-out: ED50 of 17β-estradiol, Aβ 25-35 (20 μM), absence of glutathione, 72 h) was 100 nM and the EC50 (SK-N-SH cells [4]; 72 h, read-out: ED50 of 17β-estradiol, Aβ 25-35 (20 μM), presence of glutathione (3.25 μM), 72 h) was 0.02 nM. For the same compound, the EC50 (SK-N-SH cells [4]; read-out: EC50 (17β-estradiol dose response, FIG. 3), βAP 25-35 (20 μM), without GSH) was 126 ± 87.8 nM, the live cell number (SK-N-SH cells [5]; βAP + βE2, Ascorbic Acid column) was 144 ± 9 and the live cell number (SK-N-SH cells [5]; βAP + βE2, GSH column) was 357 ± 19. The live cell number (SK-N-SH cells [5]; βAP + βE2, GSSG column) was 357 ± 19.
For `O=C1O[C@H]([C@@H](O)CO)C(O)=C1O` [Ascorbic Acid, ascorbic acid], the interaction with estrogen (SK-N-SH cells [5]) was “no apparent interactions”, the live cell number (SK-N-SH cells [5]; [6]) was 124 ± 6 and the live cell number (SK-N-SH cells [5]; [7]) was 188 ± 11.
For `C[C@@]12CCC[C@H]1[C@@H]1CCc3cc(O)ccc3[C@H]1CC2` [E-3-ol, estratriene-3-ol], the EC50 (HT-22 cells [2]; [8]) was 3680 nM and the EC50 (HT-22 cells [2]; [9]) was 14 nM.
For `N[C@@H](CCC(=O)N[C@@H](CS)C(=O)NCC(=O)O)C(=O)O` [GSH, glutathione], the “effect on β-AP (25-35) induced toxicity” value (HT-22 cells [2]; dose of GSH used in these studies, by itself) was “no effect”, the “decrease in cell viability” value (HT-22 cells [2]; presence of 3.25 pM GSH (so in the source)) was 55±3% and the “protection from β-AP toxicity” value (SK-N-SH cells [4]; GSH 325 μM) was “significant protection”. The EC50 (SK-N-SH cells [4]; 72 h, read-out: ED50 of glutathione, βAP 25-35 (20 μM), absence of 17β-estradiol, 72 h) was 32500 nM, the EC50 (SK-N-SH cells [4]; 72 h, read-out: ED50 of glutathione, βAP 25-35 (20 μM), presence of 17β-estradiol (2 nM), 72 h) was 325 nM and the EC50 (SK-N-SH cells [4]; read-out: EC50 (GSH dose response, FIG. 2), βAP 25-35 (20 μM), without 17β-estradiol) was 82500 ± 60400 nM. For the same compound, the EC50 (SK-N-SH cells [4]; read-out: EC50 (GSH dose response, FIG. 2), βAP 25-35 + 17β-estradiol (2 nM)) was 41 ± 25 nM, the neuroprotective effect (SK-N-SH cells [4]; glutathione 3.25 μM, absence of 17β-estradiol) was “little neuroprotective effect” and the “fold greater neuroprotectivity than with glutathione alone” value (SK-N-SH cells [4]; with 17β-estradiol (2 nM)) was 1000 fold. The live cell number (SK-N-SH cells [5]; [6]) was 369 ± 7 and the live cell number (SK-N-SH cells [5]; [7]) was 534 ± 16.
For `O=C(O)CCCCC1CCSS1` (stereo not drawn) [Lipoic Acid, Lipoic acid], the interaction with estrogen (SK-N-SH cells [5]) was “no apparent interactions”, the live cell number (SK-N-SH cells [5]; [6]) was 406 ± 7 and the live cell number (SK-N-SH cells [5]; [7]) was 416 ± 10.
With `NCCS(=O)(=O)O` [Taurine, 2-aminoethanoic acid] the interaction with estrogen (SK-N-SH cells [5]) was “no apparent interactions”, the live cell number (SK-N-SH cells [5]; [6]) was 402 ± 9 and the live cell number (SK-N-SH cells [5]; [7]) was 439 ± 11.
`CC(=O)Oc1c(C)c(C)c2c(c1C)CCC(C)(CCCC(C)CCCC(C)CCCC(C)C)O2` (stereo not drawn) [Tocopherol, α-tocopherol acetate] was tested, and the interaction with estrogen (SK-N-SH cells [5]) was “no apparent interactions”, the live cell number (SK-N-SH cells [5]; [6]) was 448 ± 12 and the live cell number (SK-N-SH cells [5]; [7]) was 456 ± 14.
With `C[C@]12CC[C@@H]3c4ccc(O)cc4CC[C@H]3[C@@H]1CC[C@H]2O` [α-estradiol, 17 α-estradiol] the EC50 (HT-22 cells [2]; [8]) was 1010 nM, the EC50 (HT-22 cells [2]; [9]) was 6 nM and the neuroprotection (HT-22 cells [2]) was “dose-dependent neuroprotection”. For the same compound, the synergistic effect (HT-22 cells [2]; with GSH, FIG. 5) was “marked synergistic effect”.
With “βAP 25-35: neurotoxic β-amyloid protein, a peptide of 10 amino acids (amino acids 25-35) (GSNKGAIIGLM; Amyloid-beta protein 42; UniProt P05067 696-706, looked up, fragment)” the cells killed (HT-22 cells [2]; exposure to βAP 25-35) was 50-60%, the “decrease in cell viability” value (HT-22 cells [2]; absence of GSH) was 54±4% and the “reduction in the average number of viable cells per field” value ([3]; βAP 25-35 (10 μM), absence of GSH, 24 h) was 39%. The “Live Cell Number ± SEM” value (HT-22 cells [1]; βAP (20 μM) alone) was 189 ± 11 ×10^3 cells, the live cell number (SK-N-SH cells [5]; βAP alone, Ascorbic Acid column) was 118 ± 9 and the live cell number (SK-N-SH cells [5]; βAP alone, GSH) was 331 ± 17. For the same compound, the live cell number (SK-N-SH cells [5]; βAP alone, GSSG column) was 331 ± 17, the live cell number (SK-N-SH cells [5]; βAP alone, Lipoic Acid column) was 408 ± 10 and the live cell number (SK-N-SH cells [5]; βAP alone, Taurine column) was 408 ± 10. For the same compound, the live cell number (SK-N-SH cells [5]; βAP alone, Tocopherol column) was 366 ± 24.
